# Test results taken from patent publication US20260078103A1, “ISOQUINOLONES AS PI3K INHIBITORS” (OnKure, Inc., priority 2022, published 2026).
# Where two headings read alike, the source gives them in different places.
# Tests used:
# Assay type in all cases: cell-based
# [1] = test system: T47D cells expressing mutant PI3Ka (H1047R); assay: In vitro cell proliferation, T47D cells (CellTiter-Glo); details: inhibition of proliferation, read-out: Avg T-47D EC50
# Outline: (§1)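 T47D cells in RPMI/10% FBS/insulin (0.2 units/mL) or SKBR3 in McCoys 5a/10% FBS, 1,500 cells/well, grown 72 h at 37 °C with 10-point compound dilutions. CellTiter-Glo luminescence; % inhibition normalised to 0.1% DMSO and 10 uM Alpelisib, EC50 from four-parameter curve fit.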
# [2] = test system: SKBR3 cells express WT PI3Ka; assay: In vitro cell proliferation, SKBR3 cells (CellTiter-Glo); details: inhibition of proliferation
# Outline: as §1
# [3] = test system: phosphorylation of AKT (pAKT) in T47D cells expressing mutant PI3Ka (H1047R); assay: In vitro cell pAKT (Ser473) HTRF, T47D cells; details: cellular pAKT, T47D cells, mutant PI3Ka (H1047R), 6 hours, read-out: Avg T-47D IC50
# Outline: (§2)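 Cells seeded on plates pre-stamped with 10-point compound dilutions, then grown 6 h at 37 °C (T47D in RPMI/10% FBS/insulin; SKBR3 in McCoy's 5a/10% FBS). Lysates read for pAKT Ser473 by HTRF after overnight antibody incubation. Inhibition normalised to 0.1% DMSO and 10 uM alpelisib; IC50 by four-parameter fit.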
# [4] = test system: phosphorylation of AKT (pAKT) in SKBR3 cells express WT PI3Ka; assay: In vitro cell pAKT (Ser473) HTRF, SKBR3 cells; details: cellular pAKT
# Outline: as §2
SMILES,EC50 ([1]; 72 hours),EC50 ([2]; 72 hours),IC50 [3],IC50 ([4]; 6 hours),"EC50 ([1]; Homo sapiens, T47D, 72 h)","EC50 ([2]; Homo sapiens, SK-BR-3, 72 h)","IC50 ([3]; Homo sapiens, T47D, 6 h)","IC50 ([4]; Homo sapiens, SK-BR-3, 6 h)"
Cc1cc([C@@H](C)Nc2ccccc2C(=O)O)c2cc(-c3cc(F)c4nn(C)cc4c3)n(C)c(=O)c2c1 [Example 365],1 to 500 nM,> 15000 nM,1 to 500 nM,> 15000 nM,,,,
Cc1cc([C@@H](C)Nc2ccccc2C(=O)O)c2cc(-c3cc(F)c4c(cnn4C)c3)n(C)c(=O)c2c1 [Example 366],,,,,1 to 500 nM,2000 to 15000 nM,1 to 500 nM,2000 to 15000 nM
Cc1cc([C@@H](C)Nc2ccccc2C(=O)O)c2cc(N3CCN(c4cnc(C)c(F)c4)CC3)n(C)c(=O)c2c1 [Example 367],1 to 500 nM,2000 to 15000 nM,1 to 500 nM,2000 to 15000 nM,,,,
Cc1cc([C@@H](C)Nc2ccccc2C(=O)O)c2cc(-c3cnc(CF)nc3)n(C)c(=O)c2c1 [Example 369],,,,,1 to 500 nM,> 15000 nM,1 to 500 nM,> 15000 nM
Cc1cc([C@@H](C)Nc2cccc(F)c2C(=O)O)c2cc(-c3cnc(C(F)(F)F)nc3)n(C)c(=O)c2c1 [Example 371],500 to 2000 nM,> 15000 nM,500 to 2000 nM,> 15000 nM,,,,
C[C@@H](Nc1cccc(F)c1C(=O)O)c1cc(F)cc2c(=O)n(C)c(-c3cnc(C(F)(F)F)nc3)cc12 [Example 372],2000 to 15000 nM,> 15000 nM,2000 to 15000 nM,> 15000 nM,,,,
C#Cc1ccc(N[C@H](C)c2cc(C)cc3c(=O)n(C)c(-c4cnc(C(F)(F)F)nc4)cc23)c(C(=O)O)n1 [Example 375],1 to 500 nM,> 15000 nM,1 to 500 nM,> 15000 nM,,,,
Cc1cc([C@@H](C)Nc2ccc(Cl)nc2C(=O)O)c2cc(-c3cnc(C(F)(F)F)nc3)n(C)c(=O)c2c1 [Example 376],,,,,1 to 500 nM,> 15000 nM,1 to 500 nM,2000 to 15000 nM
Cc1cc([C@@H](C)Nc2cnc(Cl)nc2C(=O)O)c2cc(N3CCN(CC(F)(F)F)CC3)n(C)c(=O)c2c1 [Example 377],2000 to 15000 nM,> 15000 nM,2000 to 15000 nM,> 15000 nM,,,,
C[C@@H](Nc1ccccc1C(=O)O)c1cc(F)cc2c(=O)n(C)c(-c3cnc(-c4ccc(F)cn4)c(F)c3)cc12 [Example 378],,,,,1 to 500 nM,> 15000 nM,1 to 500 nM,> 15000 nM
C[C@@H](Nc1cccc(F)c1C(=O)O)c1cc(F)cc2c(=O)n(C)c(-c3ccc(OC4CC4)nc3)cc12 [Example 379],,,,,1 to 500 nM,> 15000 nM,1 to 500 nM,> 15000 nM
Cc1cc([C@@H](C)Nc2ccccc2C(=O)O)c2cc(N3CCN(c4ccc(CF)nc4)CC3)n(C)c(=O)c2c1 [Example 381],1 to 500 nM,2000 to 15000 nM,1 to 500 nM,2000 to 15000 nM,,,,
Cc1cc([C@@H](C)Nc2ccccc2C(=O)O)c2cc(-c3cnc(C(F)(F)F)cn3)n(C)c(=O)c2c1 [Example 382],,,,,1 to 500 nM,> 15000 nM,1 to 500 nM,> 15000 nM
Cc1cc([C@@H](C)Nc2ccccc2C(=O)O)c2cc(-c3ncc(C(F)(F)F)cn3)n(C)c(=O)c2c1 [Example 383],,,,,1 to 500 nM,> 15000 nM,1 to 500 nM,> 15000 nM
Cc1cc([C@@H](C)Nc2ccc(F)nc2C(=O)O)c2cc(-c3cnc(C(F)(F)F)nc3)n(C)c(=O)c2c1 [Example 387],1 to 500 nM,> 15000 nM,500 to 2000 nM,> 15000 nM,,,,
CC(Nc1cccc(F)c1C(=O)O)c1cc(F)cc2c(=O)n(C)c(-c3cnc(OC4CC(F)C4)c(F)c3)cc12 (stereo not drawn) [Example 388],1 to 500 nM,> 15000 nM,1 to 500 nM,> 15000 nM,,,,
C[C@@H](Nc1cccc(F)c1C(=O)O)c1cc(F)cc2c(=O)n(C)c(-c3cnc(OC4CC4)c(F)c3)cc12 [Example 390],1 to 500 nM,> 15000 nM,1 to 500 nM,> 15000 nM,,,,
Cc1cc([C@@H](C)Nc2ccccc2C(=O)O)c2cc(-c3cnc(CF)cn3)n(C)c(=O)c2c1 [Example 393],,,,,1 to 500 nM,> 15000 nM,1 to 500 nM,> 15000 nM
Cc1cc([C@@H](C)Nc2ccccc2C(=O)O)c2cc(-c3cnc(OC4CC4)cn3)n(C)c(=O)c2c1 [Example 394],1 to 500 nM,> 15000 nM,1 to 500 nM,> 15000 nM,,,,
Cc1cc([C@@H](C)Nc2ccccc2C(=O)O)c2cc(-c3cnc(C(C)(F)F)cn3)n(C)c(=O)c2c1 [Example 395],1 to 500 nM,> 15000 nM,1 to 500 nM,> 15000 nM,,,,
Cc1cc([C@@H](C)Nc2ccccc2C(=O)O)c2cc(-c3ccc(C(F)(F)F)cn3)n(C)c(=O)c2c1 [Example 396],,,,,1 to 500 nM,> 15000 nM,1 to 500 nM,> 15000 nM
Cc1ncncc1N1CCN(c2cc3c([C@@H](C)Nc4cccc(F)c4C(=O)O)cc(F)cc3c(=O)n2C)CC1 [Example 397],1 to 500 nM,> 15000 nM,500 to 2000 nM,> 15000 nM,,,,
C[C@@H](Nc1cccc(F)c1C(=O)O)c1cc(F)cc2c(=O)n(C)c(N3C4CCC3CN(CC(F)(F)F)C4)cc12 [Example 398],,,,,1 to 500 nM,> 15000 nM,1 to 500 nM,2000 to 15000 nM
Cc1cc([C@@H](C)Nc2ccccc2C(=O)O)c2cc(Cl)n(C)c(=O)c2c1 [Example 400],,,,,500 to 2000 nM,> 15000 nM,500 to 2000 nM,> 15000 nM
Cc1ncc(-c2ncc(-c3cc4c([C@@H](C)Nc5cccc(F)c5C(=O)O)cc(F)cc4c(=O)n3C)cc2F)cc1F [Example 403],,,,,1 to 500 nM,> 15000 nM,1 to 500 nM,> 15000 nM
C[C@@H](Nc1cccc(F)c1C(=O)O)c1cc(F)cc2c(=O)n(C)c(-c3cnc(-c4cncc(F)c4)c(F)c3)cc12 [Example 404],,,,,1 to 500 nM,> 15000 nM,1 to 500 nM,> 15000 nM

# Second part, the molecule after the results:
EC50 ([1]; 72 hours),EC50 ([2]; 72 hours),IC50 [3],IC50 ([4]; 6 hours),"EC50 ([1]; Homo sapiens, T47D, 72 h)","EC50 ([2]; Homo sapiens, SK-BR-3, 72 h)","IC50 ([3]; Homo sapiens, T47D, 6 h)","IC50 ([4]; Homo sapiens, SK-BR-3, 6 h)",SMILES
,,,,500 to 2000 nM,> 15000 nM,1 to 500 nM,> 15000 nM,Cc1cc([C@@H](C)Nc2ccccc2C(=O)O)c2cc(N3CC(CC(F)(F)F)C3)n(C)c(=O)c2c1 [Example 405]
1 to 500 nM,> 15000 nM,1 to 500 nM,> 15000 nM,,,,,CC(Nc1cccc(F)c1C(=O)O)c1cc(F)cc2c(=O)n(C)c(-c3ccc(OC4CC(F)C4)nc3)cc12 (stereo not drawn) [Example 407]
500 to 2000 nM,> 15000 nM,500 to 2000 nM,> 15000 nM,,,,,Cc1ccc(C2CN(c3cc4c([C@@H](C)Nc5cccc(F)c5C(=O)O)cc(F)cc4c(=O)n3C)C2)cn1 [Example 409]
,,,,1 to 500 nM,> 15000 nM,1 to 500 nM,> 15000 nM,Cc1cc([C@@H](C)Nc2cccc(F)c2C(=O)O)c2cc(N3CCN(C)[C@@H](C(F)(F)F)C3)n(C)c(=O)c2c1 [Example 410]
,,,,1 to 500 nM,> 15000 nM,1 to 500 nM,> 15000 nM,Cc1cc([C@@H](C)Nc2cccc(F)c2C(=O)O)c2cc(N3CCN(C)[C@H](C(F)(F)F)C3)n(C)c(=O)c2c1 [Example 411]
,,,,2000 to 15000 nM,> 15000 nM,500 to 2000 nM,> 15000 nM,C[C@@H](Nc1cccc(F)c1C(=O)O)c1cc(F)cc2c(=O)n(C)c(N3CC(F)(F)C3)cc12 [Example 412]
2000 to 15000 nM,> 15000 nM,2000 to 15000 nM,> 15000 nM,,,,,C[C@@H](Nc1cccc(F)c1C(=O)O)c1cc(F)cc2c(=O)n(C)c(N3CC(C(F)(F)F)C3)cc12 [Example 413]
1 to 500 nM,> 15000 nM,1 to 500 nM,> 15000 nM,,,,,C[C@@H](Nc1cccc(F)c1C(=O)O)c1cc(F)cc2c(=O)n(C)c(N3CCC(F)(F)C3)cc12 [Example 414]
,,,,500 to 2000 nM,> 15000 nM,1 to 500 nM,> 15000 nM,C[C@@H](Nc1cccc(F)c1C(=O)O)c1cc(F)cc2c(=O)n(C)c(N3CC[C@@H](C(F)(F)F)C3)cc12 [Example 415]
,,,,500 to 2000 nM,> 15000 nM,500 to 2000 nM,> 15000 nM,C[C@@H](Nc1cccc(F)c1C(=O)O)c1cc(F)cc2c(=O)n(C)c(N3CC[C@H](C(F)(F)F)C3)cc12 [Example 416]
,,,,1 to 500 nM,> 15000 nM,1 to 500 nM,> 15000 nM,Cc1cnc(N2CCN(c3cc4c([C@@H](C)Nc5cccc(F)c5C(=O)O)cc(F)cc4c(=O)n3C)CC2)s1 [Example 417]
,,,,> 15000 nM,> 15000 nM,> 15000 nM,> 15000 nM,Cc1cc([C@@H](C)Nc2ccccc2C(=O)O)c2cc(N3CCn4c(C)nnc4C3)n(C)c(=O)c2c1 [Example 418]
,,,,500 to 2000 nM,> 15000 nM,500 to 2000 nM,> 15000 nM,Cc1cc([C@@H](C)Nc2ccccc2C(=O)O)c2cc(N3CCn4ncnc4C3)n(C)c(=O)c2c1 [Example 419]
